Experimental findings from PubChem BioAssay (NCI) are described below.

Some test systems named below: ACHN renal; CCRF-CEM leukemia; COLO 205 colon; HCC-2998 colon; K-562 leukemia; LOX IMVI melanoma; MOLT-4 leukemia; NCI-H23 lung; NCI-H460 lung; NCI/ADR-RES ovarian; OVCAR-3 ovarian; PC-3 prostate; SF-268 CNS; SF-295 CNS; SK-MEL-2 melanoma; SN12C renal; SNB-75 CNS; SW-620 colon; U251 CNS; UACC-62 melanoma.
Test in all cases: DTP human tumour cell line panel, 48 h

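Interpolation was linear, between the two tested concentrations surrounding the appropriate level; five concentrations were tested over 48 hours in 96-well plates. At the TGI there is no net growth.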

By TGI is commonly meant the concentration giving total growth inhibition.

On to `C(=NCCCN1CCN(CCCN=Cc2cccc3ccccc23)CC1)c1cccc2ccccc12`, for which the TGI in the assay with ACHN renal, in the assay with CCRF-CEM leukemia, with COLO 205 colon, with HCC-2998 colon, in the assay with K-562 leukemia and in the assay on LOX IMVI melanoma was above 100 µM each time. Moreover, the TGI with MOLT-4 leukemia, in the assay on NCI-H23 lung, with NCI-H460 lung, in the assay on NCI/ADR-RES ovarian, in the assay with OVCAR-3 ovarian and in the assay with PC-3 prostate was above 100 µM each time. The TGI with SF-268 CNS, in the assay with SF-295 CNS, in the assay on SK-MEL-2 melanoma, in the assay on SN12C renal, in the assay on SNB-75 CNS and in the assay with SW-620 colon was above 100 µM each time. The TGI in the assay on U251 CNS and in the assay with UACC-62 melanoma was above 100 µM throughout.

Consider `CCOC(=O)c1c[nH]cc1-c1cn(S(=O)(=O)c2ccccc2)cc1C`, for which the TGI with ACHN renal was 64.3 µM; with CCRF-CEM leukemia it was above 100 µM; in the assay with COLO 205 colon, 42.4 µM; in the assay with HCC-2998 colon, 41 µM; in the assay on K-562 leukemia, 86.4 µM; in the assay on LOX IMVI melanoma, 71.9 µM. Moreover, the TGI with MOLT-4 leukemia is above 100 µM; in the assay with NCI-H23 lung, 69.8 µM; in the assay on NCI-H460 lung, 47.3 µM; in the assay on NCI/ADR-RES ovarian it was above 100 µM; in the assay on OVCAR-3 ovarian it was 61.8 µM; in the assay on PC-3 prostate it was 56.3 µM. The total growth inhibition concentration (TGI) in the assay with SF-268 CNS was 78.6 µM; in the assay with SF-295 CNS, above 100 µM; in the assay on SK-MEL-2 melanoma, above 100 µM; in the assay with SN12C renal, 59.6 µM; in the assay on SNB-75 CNS it was 63.1 µM; with SW-620 colon, above 10 µM. In addition, the results for the TGI in the assay on U251 CNS and in the assay with UACC-62 melanoma were 85.4 µM and 33.6 µM, respectively.

In the case of `CC1=NN(C(=O)CC(=O)Nc2cccc(C)c2)C(=O)C1N=Nc1ccc(S(=O)(=O)c2ccc(N=NC3C(=O)N(C(=O)CC(=O)Nc4cccc(C)c4)N=C3C)cc2)cc1` (stereo not given), the concentration for total growth inhibition (TGI) in the assay with ACHN renal, in the assay with CCRF-CEM leukemia, in the assay with COLO 205 colon, with HCC-2998 colon, in the assay with K-562 leukemia and with LOX IMVI melanoma was above 100 µM each time. Moreover, the TGI in the assay with MOLT-4 leukemia, in the assay with NCI-H23 lung, with NCI-H460 lung, in the assay with NCI/ADR-RES ovarian, in the assay on OVCAR-3 ovarian and with PC-3 prostate was above 100 µM each time. For the same compound, the total growth inhibition concentration (TGI) with SF-268 CNS, in the assay with SF-295 CNS, with SK-MEL-2 melanoma, with SN12C renal, with SNB-75 CNS and in the assay on SW-620 colon was above 100 µM each time. The TGI with U251 CNS and with UACC-62 melanoma was above 100 µM throughout.

Consider `C=C(C)[C@@H]1CCC2=C[C@H](OC2=O)[C@@]2(C)C[C@@H]2C(=O)/C=C(/C)C(=O)[C@H]1OC(C)=O`, for which the TGI with ACHN renal was above 48.2 µM; in the assay on CCRF-CEM leukemia, above 25.2 µM; in the assay on COLO 205 colon, 45.3 µM; in the assay with HCC-2998 colon, 43 µM; with K-562 leukemia it was above 32.2 µM; in the assay on LOX IMVI melanoma, 41.3 µM. The TGI in the assay with MOLT-4 leukemia was above 39.4 µM; in the assay with NCI-H23 lung it was above 58.5 µM; in the assay with NCI-H460 lung it was above 82.3 µM; with NCI/ADR-RES ovarian, above 100 µM; in the assay on OVCAR-3 ovarian, above 50.8 µM; in the assay on PC-3 prostate, above 46.1 µM. The TGI is above 72.6 µM in the assay on SF-268 CNS; above 100 µM in the assay with SF-295 CNS; above 80.1 µM with SK-MEL-2 melanoma; above 56.9 µM in the assay on SN12C renal; above 83.5 µM in the assay on SNB-75 CNS; above 44.6 µM in the assay with SW-620 colon. Further, the total growth inhibition concentration (TGI) in the assay with U251 CNS was above 68 µM; in the assay with UACC-62 melanoma it was above 73 µM.
